What was measured:
[1] = IPF patients treated; cited from earlier work
[2] = tested on: αvβ6 integrin-mediated TGFβ activation; conditions: in vitro experiments; cited from earlier work
[3] = Pulmonary function tests (DLCO, FEV1, FVC), change from baseline; type: in vivo, human
Method: Participants were under continuous medical supervision during each admission period (up to 48 h post-dose), and safety assessments were made at regular intervals throughout each period and until the end of follow-up. Assessment of safety was conducted by monitoring AEs, clinical laboratory tests (haematology, clinical chemistry and urinalysis), vital signs (including pulse oximetry), 12-lead ECGs, telemetry, physical examinations and pulmonary function tests (forced expiratory volume in 1 s [FEV1], FVC, diffusing capacity of the lung for carbon monoxide).

αvβ6 integrin = conditions: cited from earlier work

Cc1ccc(=O)n(-c2ccccc2)c1 [pirfenidone]
Discontinuation due to adverse events (AEs), patients [1]: approximately 30% | Effects on αvβ6 integrin-mediated TGFβ activation [2]: limited effects

COC(=O)c1ccc2c(c1)NC(=O)/C2=C(\Nc1ccc(N(C)C(=O)CN2CCN(C)CC2)cc1)c1ccccc1 [nintedanib]
Discontinuation due to adverse events (AEs), patients [1]: ~20% | Effects on αvβ6 integrin-mediated TGFβ activation [2]: limited effects

Cc1cc(C)n(-c2cccc([C@H](CC(=O)O)CN3CC[C@@H](CCc4ccc5c(n4)NCCC5)C3)c2)n1 [GSK3008348]
DLCO, mean change from baseline to 24 h post dose ([3]; 1 mcg, N=6): -0.153 L | FEV1, mean change from baseline to 24 h post dose ([3]; 1 mcg, N=6): -0.043 L | FVC, mean change from baseline to 24 h post dose ([3]; 1 mcg, N=6): -0.06 L | DLCO, mean change from baseline to 24 h post dose ([3]; 3 mcg, N=6): 0.938 L | FEV1, mean change from baseline to 24 h post dose ([3]; 3 mcg, N=6): -0.007 L | FVC, mean change from baseline to 24 h post dose ([3]; 3 mcg, N=6): 0.125 L | DLCO, mean change from baseline to 24 h post dose ([3]; 10 mcg, N=6): 0.113 L | FEV1, mean change from baseline to 24 h post dose ([3]; 10 mcg, N=6): -0.053 L | FVC, mean change from baseline to 24 h post dose ([3]; 10 mcg, N=6): -0.105 L | DLCO, mean change from baseline to 24 h post dose ([3]; 30 mcg, N=6): -0.168 L | FEV1, mean change from baseline to 24 h post dose ([3]; 30 mcg, N=6): 0.085 L | FVC, mean change from baseline to 24 h post dose ([3]; 30 mcg, N=6): 0.033 L | DLCO, mean change from baseline to 24 h post dose ([3]; 100 mcg, N=6): -0.862 L | FEV1, mean change from baseline to 24 h post dose ([3]; 100 mcg, N=6): 0.023 L | FVC, mean change from baseline to 24 h post dose ([3]; 100 mcg, N=6): 0.12 L | DLCO, mean change from baseline to 24 h post dose ([3]; 300 mcg, N=6): 0.562 L | FEV1, mean change from baseline to 24 h post dose ([3]; 300 mcg, N=6): -0.072 L | FVC, mean change from baseline to 24 h post dose ([3]; 300 mcg, N=6): -0.078 L | DLCO, mean change from baseline to 24 h post dose ([3]; 1000 mcg, N=12): -0.293 L | FEV1, mean change from baseline to 24 h post dose ([3]; 1000 mcg, N=12): -0.027 L | FVC, mean change from baseline to 24 h post dose ([3]; 1000 mcg, N=12): -0.014 L | DLCO, mean change from baseline to 24 h post dose ([3]; 3000 mcg, N=11): 0.547 L | FEV1, mean change from baseline to 24 h post dose ([3]; 3000 mcg, N=11): -0.025 L | FVC, mean change from baseline to 24 h post dose ([3]; 3000 mcg, N=11): -0.094 L | Individual change from baseline in FEV1 and FVC over time between treatment groups ([3]; all dose levels): did not show clinically significant differences | Binding affinity for the αvβ6 integrin (αvβ6 integrin): high affinity

Reference: PMC5942357 (European Journal of Clinical Pharmacology, 2018)
